Columns and labels:
dendritic cells (DCs) = assay: Calcein release from endosomal vesicles in dendritic cells; assay type: cell-based, mouse; settings: 2 h at 37° C.
Experimental: DCs were isolated from mouse bone marrow tissues as previously described in Lewis et al. according to the guidelines set forth by the University of Florida Institutional Animal Care and Use Committee.
DCs were plated in 35 mm glass bottom culture dishes at a density of 5×10^4 cells in DC culture medium [DMEM:F12 1:1 (GE Healthcare Life Sciences), 10% fetal bovine serum, 1 mM sodium pyruvate, nonessential amino acids, penicillin-streptomycin, and 20 ng/mL GM-CSF (R&D systems)]. […] As a positive control, a portion of DCs were treated with the membrane permeable Acetoxymethyl ester of calcein (5 μM). Following treatment, cells were washed four times with phosphate buffered saline. New culture medium was added and the cells were imaged with a fluorescent microscope (Axiovert 200M microscope (Carl Zeiss, Oberkochen, Germany) using excitation/emission wavelengths of 495/515 nm at 200-fold magnification.
Images were analyzed by measuring the area of fluorescence per channel (green vs bright field). The values are reported as % relative fluorescence intensity per cell (RFI/cell).

[1] = test system: Chinese hamster ovary (CHO-K1) cells; assay: CytoTox96 LDH cytotoxicity assay; assay type: cell-based; settings: positive control for toxicity
Experimental: Chinese hamster ovary (CHO-K1) cells were grown in Ham's F12 medium (Mediatech) containing 10% fetal bovine serum (FBS, Hyclone), penicillin (100 units/mL), and streptomycin (100 μg/mL) at 37° C. in a humidified incubator with 5% CO2 [30]. Cell viability was determined via Trypan blue exclusion and was 97% with each passage.
Toxicity of MPs was determined employing CytoTox96 Non-radioactive Cytotoxity Assay (Promega). CHO cells were plated at a density of 10,000 cells per well in a 96 well tissue culture plate in 200 μL of cell culture medium. Cells were maintained at 37° C. in a humidified incubator in a 5% CO2 atmosphere. MPs were added at a ratio of 5, 10, 20, 30, 40, and 50 particles/cell and incubated at 37° C. for 24 h. The culture medium was transferred into wells of a clear bottom 96 well plate. Cells treated with 0.1% Triton X-100 were used as a positive control for 100% toxicity and cell culture medium alone was used for background subtraction for baseline lactate dehydrogenase (LDH) activity (background control). The cell supernatants were incubated with the developing reagents for 30 min per the manufacturer's instructions. The optical density of the developed color was determined by measuring absorbance at 490 nm. […]

Molecule	cytosolic distribution of calcein (fluorescent area over cell area) (dendritic cells (DCs))	LDH release relative to basal background LDH activity in media without cells [1] [fold]
O=C(O)CN(CC(=O)O)Cc1cc2c(cc1O)Oc1cc(O)c(CN(CC(=O)O)CC(=O)O)cc1C21OC(=O)c2ccccc21 [calcein alone]	less than 10%	–
Acetoxymethyl ester of calcein [calcein AM]	~95%	–
Triton X-100	–	21
